In patent US11413328B2, “Methods for treating inflammatory conditions of the lungs” (priority 2016, dated 2022):
Bridges are numbered along the chain shown (N, C = ends). Where no end group is shown, it is not given here.

How the values were obtained:
[1] = Pharmacokinetics after single oral gavage; format: in vivo, NMRI mice; conditions: oral 4 mg/kg in mice
Procedure: Pharmacokinetic study to establish pharmacokinetic profile of hBD-2 following single oral gavage of 4 mg/kg administration to NMRI mice.
21 female NMRI mice were dosed by oral gavage 5 ml/kg using a gavage tube and a 1 ml syringe according to the individual body weight obtained on the day of dosing. Urine was strived sampled at random time points by gently massaging the inguinal area of the abdomen. The first blood sample was taken using a submandibular sampling method. The second blood sample was collected from Isoflurane anaesthetized mice. Intestinal samples were taken after euthanasia. The abdomen of each mouse was opened and three sections of the intestines were sampled.

[2] = Pharmacokinetics after subcutaneous or intravenous administration; format: in vivo, NMRI female mice; conditions: female, NMRI, mouse, hBD-2 1 mg/kg subcutaneous or intravenous
Procedure: To investigate and compare the pharmacokinetic profile of hBD-2 fused to the C-terminal (molecular weight 71.336 Da) or N-terminal (molecular weight 71.666 Da) of human serum albumin following subcutaneous or intravenous administration of a molar equivalent to 1 mg/kg hBD-2 (molecular weight […]) to NMRI female mice.
The animals were dosed 10 ml/kg of stock concentration of 1.65 mg/ml according to the individual body weight (300 μL for a 30 gram mouse). First blood sample was taken using a submandibular sampling method and the second following Isoflurane anaesthesia and euthanasia.

Sequence: GIGDPVTCLKSGAICHPVFCPRRYKQIGTCGLPGTKCCKKP (disulfide 8-37, 15-30, 20-38 (inferred)) [hBD-2, human beta defensin 2]
- systemic availability after oral dosing [1]: not systemically available
- half-life ([2]; blood): 1 h
- CL renal ([2]; in vivo, read-out: renal clearance): 10 mL/min
